From patent US20080226719A1, “Combination of Rosiglitazone and Donepezil for Improvement of Cognitive Function” (priority 2005, published 2008)

Columns and labels:
Type in all cases: in vivo, human
Alzheimer's patients [1] = experiment: CIBIC+ in patients with mild to moderate AD, 24 week placebo-controlled study (Example 2); settings: Table 13A updated analysis, 24 weeks
Method: (§1) Analysis for the full intent to treat (ITT) population was performed on 511 subjects who were randomly allocated into one of four specific treatment regimes. Genotyping analysis was performed on 63% (323/511) of the ITT population.
(§2) Patient population included Caucasian males and females between 50-85 years of age who had been diagnosed with mild to moderate AD, were not receiving any medications which could adversely prejudice the study (e.g. PPAR-gamma agonists or conventional AD medicaments) or had any other potentially prejudicial ailments (e.g. diabetes or major psychiatric disorders).
(§3) Patients received either placebo or one of three dosage levels of extended release rosiglitazone provided once daily (2 mg, 4 mg and 8 mg tablets as described in Example 1). Patients were examined using the cognitive Alzheimer's Disease Assessment Scale (ADAS-cog; for further information see Rosen W G et al. Am. J. Psychiatry. 1984 141:1356-1364) and the Clinician's Interview-Based Impression of Change with caregiver information (CIBIC+; for further information see Knopman D S et al. Neurology 1994 44: 2315-2321); and secondary assessments were performed using: the Disability Assessment for Dementia (DAD, for further information see Gelinas L et al. Am J Occup Ther 1999 53: 471-81) and the Neuropsychiatric Inventory test (NPI, for further information see Cummings et al (1994) Neurology 44, 2308-2314) at the start of the study (baseline) and during the course of the study (after 8, 16 and 24 weeks of treatment).
(§4) APOE genotype was determined using the TaqMan PCR-based method of McLeod et al 2001 infra.
(§5) All statistics reflect last observed assessment carried forward (LOCF) measurements.
Higher CIBIC+ scores indicate a greater level of decline with scores below 4 denoting clinical improvement and scores above 4 denoting clinical decline.

Alzheimer's patients [2] = experiment: ADAS-cog in patients with mild to moderate AD, 24 week placebo-controlled study (Example 2); settings: for ADAS-cog Treatment Difference (95% confidence limits) Rosi − Placebo / ADAS-cog model adjusted change from baseline, LSMean (SE): ITT population, LOCF; for ADAS-cog Treatment Difference (95% confidence limits) Rosi − Placebo / ADAS-cog model adjusted change from baseline, LSMean (SE) / ADAS-cog Treatment Difference (90% confidence limits) Rosi − Placebo / ADAS-cog model-adjusted change from baseline, LSMean (SE): 24 weeks; for ADAS-cog Treatment Difference (90% confidence limits) Rosi − Placebo / ADAS-cog model-adjusted change from baseline, LSMean (SE): PGx ITT population
Method: as §1, §2, §3, §4, §5
It should be noted that in the case of ADAS-cog higher scores indicate reduced cognitive function.

Alzheimer's patients [3] = experiment: Neuropsychiatric Inventory (NPI), Example 2 study; settings: week 24
Method: as §3
Similar results were identified using the Neuropsychiatric Inventory (NPI) test (Cummings et al (1994) Neurology 44, 2308-2314). A prospectively defined test for interaction between APOE4 carriage status and NPI scores at week 24 was significant ([…]).

## CN(CCOc1ccc(CC2SC(=O)NC2=O)cc1)c1ccccn1 (stereo not drawn) [Rosi, 5-[4-[2-(N-methyl-N-(2-pyridyl)amino)ethoxy]benzyl]thiazolidine-2,4-dione]
Alzheimer's patients [1]; 1 APOE4 copy, 4 mg
  CIBIC+ Treatment Difference (90% confidence limits) Rosi − Placebo: 0.04 (−0.44, 0.53)
Alzheimer's patients [1]; 1 APOE4 copy, 8 mg
  CIBIC+ Treatment Difference (90% confidence limits) Rosi − Placebo: −0.22 (−0.74, 0.29)
Alzheimer's patients [1]; 2 APOE4 copies, 2 mg
  CIBIC+ Treatment Difference (90% confidence limits) Rosi − Placebo: −0.91 (−2.19, 0.36)
Alzheimer's patients [1]; 2 APOE4 copies, 4 mg
  CIBIC+ Treatment Difference (90% confidence limits) Rosi − Placebo: −0.45 (−1.59, 0.70)
Alzheimer's patients [1]; 2 APOE4 copies, 8 mg
  CIBIC+ Treatment Difference (90% confidence limits) Rosi − Placebo: −0.09 (−1.09, 0.92)
Alzheimer's patients [2]; APOE4+ individuals, 2 mg, 4 mg or 8 mg, after 8 weeks
  ADAS-cog change from baseline, cognitive function (FIG. 2): slight improvement
Alzheimer's patients [2]; APOE4+ individuals, 2 mg, after 16 weeks
  ADAS-cog change from baseline, cognitive function (FIG. 2): a greater decline than the placebo
Alzheimer's patients [2]; APOE4+ individuals, 4 mg and 8 mg, after 16 weeks, versus placebo
  ADAS-cog change from baseline, cognitive function (FIG. 2): the same or better clinical status
Alzheimer's patients [2]; APOE4+ individuals, all three treatment arms, after 24 weeks
  ADAS-cog change from baseline, cognitive function (FIG. 2): finish with a clinical decline
Alzheimer's patients [2]; APOE4 heterozygotes, higher doses (4, 8 mg), course of the study
  ADAS-cog change from baseline (FIG. 3): remained close to the baseline
Alzheimer's patients [2]; APOE4 homozygotes, all treated
  ADAS-cog change from baseline (FIG. 3): experienced a clinical decline
Alzheimer's patients [2]; APOE4− individuals, 2 mg, 4 mg or 8 mg, all time points (8, 16 and 24 weeks)
  ADAS-cog change from baseline, cognitive function (FIG. 2): marked improvement
Alzheimer's patients [2]; 2 mg
  ADAS-cog Treatment Difference (95% confidence limits) Rosi − Placebo: 0.25 (−1.19, 1.68)
Alzheimer's patients [2]; 2 mg once daily extended release
  ADAS-cog model adjusted change from baseline, LSMean (SE): −0.2 (0.54)
Alzheimer's patients [2]; 4 mg
  ADAS-cog Treatment Difference (95% confidence limits) Rosi − Placebo: −0.46 (−1.90, 0.97)
Alzheimer's patients [2]; 4 mg once daily extended release
  ADAS-cog model adjusted change from baseline, LSMean (SE): −0.9 (0.54)
Alzheimer's patients [2]; 8 mg
  ADAS-cog Treatment Difference (95% confidence limits) Rosi − Placebo: −0.27 (−1.70, 1.16)
Alzheimer's patients [2]; 8 mg once daily extended release
  ADAS-cog model adjusted change from baseline, LSMean (SE): −0.7 (0.53)
Alzheimer's patients [2]; 0 APOE4 copies, 2 mg
  ADAS-cog Treatment Difference (90% confidence limits) Rosi − Placebo: −2.39 (−4.43, −0.36)
  ADAS-cog model-adjusted change from baseline, LSMean (SE): −1.38 (0.90)
Alzheimer's patients [2]; 0 APOE4 copies, 4 mg
  ADAS-cog Treatment Difference (90% confidence limits) Rosi − Placebo: −2.26 (−4.32, −0.20)
  ADAS-cog model-adjusted change from baseline, LSMean (SE): −1.25 (0.90)
Alzheimer's patients [2]; 0 APOE4 copies, 8 mg
  ADAS-cog Treatment Difference (90% confidence limits) Rosi − Placebo: −2.86 (−4.98, −0.74)
  ADAS-cog model-adjusted change from baseline, LSMean (SE): −1.85 (0.94)
Alzheimer's patients [2]; 0 APOE4 copies, 8 mg, listed as rosiglitazone
  ADAS-cog Treatment Difference (90% confidence limits) Rosi − Placebo: −2.86
Alzheimer's patients [2]; 1 APOE4 copy, 2 mg
  ADAS-cog Treatment Difference (90% confidence limits) Rosi − Placebo: 2.59 (0.10, 5.08)
  ADAS-cog model-adjusted change from baseline, LSMean (SE): 2.02 (1.10)
Alzheimer's patients [2]; 1 APOE4 copy, 4 mg
  ADAS-cog Treatment Difference (90% confidence limits) Rosi − Placebo: 0.36 (−2.18, 2.90)
  ADAS-cog model-adjusted change from baseline, LSMean (SE): −0.21 (1.15)
Alzheimer's patients [2]; 1 APOE4 copy, 8 mg
  ADAS-cog Treatment Difference (90% confidence limits) Rosi − Placebo: 0.23 (−2.42, 2.87)
  ADAS-cog model-adjusted change from baseline, LSMean (SE): −0.34 (1.25)
Alzheimer's patients [2]; 2 APOE4 copies, 2 mg
  ADAS-cog Treatment Difference (90% confidence limits) Rosi − Placebo: 10.26 (3.64, 16.87)
  ADAS-cog model-adjusted change from baseline, LSMean (SE): 5.67 (2.98)
Alzheimer's patients [2]; 2 APOE4 copies, 4 mg
  ADAS-cog Treatment Difference (90% confidence limits) Rosi − Placebo: 7.75 (1.79, 13.71)
  ADAS-cog model-adjusted change from baseline, LSMean (SE): 3.16 (2.44)
Alzheimer's patients [2]; 2 APOE4 copies, 8 mg
  ADAS-cog Treatment Difference (90% confidence limits) Rosi − Placebo: 6.50 (1.28, 11.71)
  ADAS-cog model-adjusted change from baseline, LSMean (SE): 1.91 (1.73)
Alzheimer's patients [3]; APOE4+ subjects
  NPI scores, pattern of results: demonstrated no improvement
Alzheimer's patients [3]; APOE4− subjects
  NPI scores, pattern of results: demonstrated improvement on NPI
